Values joined by “and” are separate entries in the source; they are usually repeats but may differ in a detail not shown here. Equal entries are not always repeated.
Legend:
[1] = test system: 10 bp pvirB 51-60 FID (DNA, duplex) TAAAATAGTA/TACTATTTTA; experiment: fluorescent intercalator displacement (ethidium bromide); details: 0.1 M NaCl; 0.1 M Tris-HCl pH 8.0, room temperature; 7.5 μM ethidium displaced; 1.5 μM DNA; 100 μM compound
[2] = test system: 10 bp pvirB FID DNA probes; experiment: Fluorescence intercalator displacement (FID) assay, 10 bp probes; type: binding, Shigella flexneri; details: for 10 bp pvirB 51–60 FID probe %fluorescence: ethidium bromide 7.5 μM, probe 1.5 μM
Protocol: The FID protocol was based on previously published studies and was conducted in triplicate. For the assay, black, half-area, 96-well plates (Corning, Twerksbury, MA) were used. First, 70 μL of ethidium bromide in Tris Buffer (0.1 M Tris HCl, 0.1 M NaCl, pH 8.0) was added to all wells. The concentration of ethidium bromide was contingent upon the length of the DNA probe that was used. For the 60 bp pvirB FID DNA probe, the final ethidium bromide concentration used was 45 μM; whereas, for the 10 bp pvirB (51–60) FID DNA probe, the final ethidium bromide concentration used was 7.5 μM. Next, 10 μL of either pvirB FID DNA probes (10 or 60 bp) in TE/NaCl buffer (see above) or 10 μL of TE/NaCl buffer (background fluorescence control) were added to the appropriate wells of the plate. The final concentrations of the pvirB FID DNA probes were 1.5 μM. Lastly, 20 μL of test compound (either 19615 or Berenil) in 10% DMSO Tris Buffer or 20 μL of 10% DMSO Tris Buffer (100% fluorescence control) were added to the appropriate wells of the plate. […] After the addition of all reagents, the plates were protected from light and allowed to equilibrate for 30 min on an orbital shaker at room temperature. Following equilibration, fluorescence was measured […] using a Biotek Synergy H1 plate reader (Winooski, VT). The average background fluorescence was subtracted from all data generated and %fluorescence was calculated for all wells containing compound via the following formula: %fluorescence=Ftest/F100%^*100 where: Ftest = the average fluorescence value obtained for each test compound and F100% = the average fluorescence value obtained for each 100% fluorescence control.

[3] = test system: pvirB 21-30 (DNA, duplex) AATAAAGATA/TATCTTTATT; experiment: fluorescent intercalator displacement (ethidium bromide); details: 0.1 M NaCl; 0.1 M Tris-HCl pH 8.0; ethidium displaced; 2 μM compound, single concentration
[4] = test system: pvirB 1-10 (DNA, duplex) AGAATATTAT/ATAATATTCT; experiment: as above; details: 0.1 M NaCl; 0.1 M Tris-HCl pH 8.0; ethidium displaced; 2 μM compound, single concentration
[5] = test system: pvirB 31-40 (DNA, duplex) AATTGCATCA/TGATGCAATT; experiment: as above; details: 0.1 M NaCl; 0.1 M Tris-HCl pH 8.0; ethidium displaced; 2 μM compound, single concentration
[6] = test system: 60 bp pvirB FID DNA probe; experiment: Fluorescence intercalator displacement (FID) assay, 60 bp probe; type: binding, Shigella flexneri; details: for 60 bp pvirB FID probe %fluorescence: ethidium bromide 45 μM, probe 1.5 μM
Protocol: The FID protocol was based on previously published studies and was conducted in triplicate. For the assay, black, half-area, 96-well plates (Corning, Twerksbury, MA) were used. First, 70 μL of ethidium bromide in Tris Buffer (0.1 M Tris HCl, 0.1 M NaCl, pH 8.0) was added to all wells. The concentration of ethidium bromide was contingent upon the length of the DNA probe that was used. For the 60 bp pvirB FID DNA probe, the final ethidium bromide concentration used was 45 μM; whereas, for the 10 bp pvirB (51–60) FID DNA probe, the final ethidium bromide concentration used was 7.5 μM. Next, 10 μL of either pvirB FID DNA probes (10 or 60 bp) in TE/NaCl buffer (see above) or 10 μL of TE/NaCl buffer (background fluorescence control) were added to the appropriate wells of the plate. The final concentrations of the pvirB FID DNA probes were 1.5 μM. Lastly, 20 μL of test compound (either 19615 or Berenil) in 10% DMSO Tris Buffer or 20 μL of 10% DMSO Tris Buffer (100% fluorescence control) were added to the appropriate wells of the plate. The final concentrations of each test compound ranged from 12.5 μM to 100 μM. After the addition of all reagents, the plates were protected from light and allowed to equilibrate for 30 min on an orbital shaker at room temperature. Following equilibration, fluorescence was measured […] using a Biotek Synergy H1 plate reader (Winooski, VT). The average background fluorescence was subtracted from all data generated and %fluorescence was calculated for all wells containing compound via the following formula: %fluorescence=Ftest/F100%^*100 where: Ftest = the average fluorescence value obtained for each test compound and F100% = the average fluorescence value obtained for each 100% fluorescence control.

[7] = test system: 60 bp pvirB FID (DNA, duplex) AGAATATTATTCTTTTATCCAATAAAGATAAATTGCATCAATCCAGCTATTAAAATAGTA/TACTATTTTAATAGCTGGATTGATGCAATTTATCTTTATTGGATAAAAGAATAATATTCT; experiment: fluorescent intercalator displacement (ethidium bromide); details: 0.1 M NaCl; 0.1 M Tris-HCl pH 8.0, room temperature; 45 μM ethidium displaced; 1.5 μM DNA; 100 μM compound
[8] = test system: pvirB 11-20 (DNA, duplex) TCTTTTATCC/GGATAAAAGA; experiment: as above; details: 0.1 M NaCl; 0.1 M Tris-HCl pH 8.0; ethidium displaced; 2 μM compound, single concentration
[9] = test system: initial S. flexneri invasion; design: method as in PMID 24549153, PMID 20237205; details: at concentrations at or below its IC50 in the reporter assay; cited from earlier work
[10] = test system: spread of an active S. flexneri infection; details: at concentrations at or below their IC50s in the reporter assay; cited from earlier work

In the case of CC(=O)NCC(=O)O.CC(=O)NCC(=O)O.N=C(N)c1ccc(N=NNc2ccc(C(=N)N)cc2)cc1 [Berenil, reference compound], the “%fluorescence” value [1] is reported as 46 ± 1%, the “%fluorescence, 10 bp fragment pvirB 21-30” value ([2]; compound 2 μM, preliminary FID screen, 5'-AATAAAGATA-3') is reported as 81% ± 4% and the “%fluorescence, 10 bp fragment pvirB 31-40” value ([2]; compound 2 μM, preliminary FID screen, 5'-AATTGCATCA-3') is reported as 89% ± 5%. The “%fluorescence, 10 bp fragment pvirB 1-10” value ([2]; compound 2 μM, preliminary FID screen, 5'-AGAATATTAT-3') was 45% ± 2%, the “%fluorescence, 10 bp fragment pvirB 41-50” value ([2]; compound 2 μM, preliminary FID screen, 5'-ATCCAGCTAT-3') was 96% ± 2% and the “%fluorescence, 10 bp fragment pvirB 51-60” value ([2]; compound 2 μM, preliminary FID screen, 5'-TAAAATAGTA-3') was 67% and 67% ± 0%. The “%fluorescence, 10 bp fragment pvirB 11-20” value ([2]; compound 2 μM, preliminary FID screen, 5'-TCTTTTATCC-3') was 66% ± 0%, the “10 bp pvirB 51–60 FID probe %fluorescence” value ([2]; compound 12.5 μM) was 52% ± 1% and the “10 bp pvirB 51–60 FID probe %fluorescence” value ([2]; compound 25 μM) was 51% ± 2%. For the same compound, the “10 bp pvirB 51–60 FID probe %fluorescence” value ([2]; compound 50 μM) was 51% ± 1%, the “10 bp pvirB 51–60 FID probe %fluorescence” value ([2]; compound 100 μM) was 46% ± 1% and the “%fluorescence” value [3] was 81 ± 4%. For the same compound, the “%fluorescence” value [4] was 45 ± 2%, the “%fluorescence” value [5] was 89 ± 5% and the “Displacement of ethidium bromide from the pvirB DNA probes (FID)” value ([6]; 12.5 to 100 μM, both 60 bp and 10 bp probes) was “able to displace ethidium bromide”. The “60 bp pvirB FID probe %fluorescence” value ([6]; compound 12.5 μM) was 76% ± 2%, the “60 bp pvirB FID probe %fluorescence” value ([6]; compound 25 μM) was 67% ± 2% and the “60 bp pvirB FID probe %fluorescence” value ([6]; compound 50 μM) was 58% ± 1%. For the same compound, the “60 bp pvirB FID probe %fluorescence” value ([6]; compound 100 μM) was 48% ± 2%, the “%fluorescence” value [7] was 48 ± 2% and the “%fluorescence” value [8] was 66 ± 0%.

In the case of COc1ccc(NC(=O)c2nc(S(C)(=O)=O)ncc2Cl)cc1Cl [compound 144092], the “Inhibition of initial S. flexneri invasion” value [9] is given as “approximately 50%” and the “Inhibition of the spread of an active S. flexneri infection” value [10] is given as “approximately 75%”.

— PMC4564171 (PLoS ONE, 2015)
